Test results taken from patent US8980920B2, “Antiviral compounds of three linked aryl moieties to treat diseases such as hepatitis C” (Merck Sharp & Dohme Corp., priority 2009, dated 2015).

Assays:
HCV replicon 2a JFH = assay: Cell-based HCV replicon assay, genotype 2a JFH; conditions: Hepatitis C virus, 72 h, replicon cells, replicon RNA by Taqman on day 3
Description: (§1) To measure cell-based anti-HCV activity of selected compounds of the present invention, the following replicon assay can be used.
(§2) Replicon cells are seeded at 5000 cells/well in 96-well collagen I-coated Nunc plates in the presence of the test compound. Various concentrations of test compound, typically in 10 serial 2-fold dilutions, are added to the assay mixture, with the starting concentration ranging from 10 μM to 0.001 μM. The final concentration of DMSO should be about 0.5%, and the final concentration of fetal bovine serum should be about 5%, in the assay media. Cells are harvested on day 3 by the addition of 1× cell lysis buffer (Ambion cat #8721). The replicon RNA level is then measured (using, for example, the real time PCR (Taqman assay)). The amplicon is located in 5B. The PCR primers are: 5B.2F, ATGGACAGGCGCCCTGA (SEQ ID NO. 1); 5B.2R, […] (SEQ ID NO. 2); the probe sequence is FAM-labeled CACGCCATGCGCTGCGG (SEQ ID NO. 3). […] Alternatively, to quantitate the absolute amount of replicon RNA, a standard curve can be established by including serially diluted T7 transcripts of replicon RNA in the Taqman assay. […]
(§3) HCV replicon assay data was calculated for various genotypes for selected compounds of the present invention using this method and is provided in the table below.

HCV replicon 1b c16 = assay: Cell-based HCV replicon assay, genotype 1b c16; conditions: Hepatitis C virus, 72 h; replicon cells, genotype 1b c16, replicon RNA by Taqman on day 3
Description: as §1
Replicon cells are seeded at 5000 cells/well in 96-well collagen I-coated Nunc plates in the presence of the test compound. Various concentrations of test compound, typically in 10 serial 2-fold dilutions, are added to the assay mixture, with the starting concentration ranging from 10 μM to 0.001 μM. The final concentration of DMSO should be about 0.5%, and the final concentration of fetal bovine serum should be about 5%, in the assay media. Cells are harvested on day 3 by the addition of 1× cell lysis buffer (Ambion cat #8721). The replicon RNA level is then measured (using, for example, the real time PCR (Taqman assay)). The amplicon is located in 5B. The PCR primers are: 5B.2F, ATGGACAGGCGCCCTGA (SEQ ID NO. 1); 5B.2R, […] (SEQ ID NO. 2); the probe sequence is FAM-labeled CACGCCATGCGCTGCGG (SEQ ID NO. 3). GAPDH RNA is to be used as endogenous control and is amplified in the same reaction as NS5B (multiplex PCR) using the primers and the VIC-labeled probe recommended by the manufacturer (PE Applied Biosystems). The real-time RT-PCR reactions can be run on an ABI PRISM 7900HT Sequence Detection System using the following program: 48° C. for 30 minutes, 95° C. for 10 minutes, 40 cycles of 95° C. for 15 sec, 60° C. for 1 minute. The ΔCT values (CT5B-CTGAPDH) are then plotted against the concentration of test compound and fitted to the sigmoid dose-response model using XLfit4 (MDL). EC50 is defined as the concentration of inhibitor necessary to achieve ΔCT=1 over the projected baseline; EC90 is defined as the concentration necessary to achieve ΔCT=3.2 over the baseline. Alternatively, to quantitate the absolute amount of replicon RNA, a standard curve can be established by including serially diluted T7 transcripts of replicon RNA in the Taqman assay. […]
as §3

HCV replicon 1a 1A7 = assay: Cell-based HCV replicon assay, genotype 1a 1A7; conditions: Hepatitis C virus, 72 h; replicon cells, genotype 1a 1A7, replicon RNA by Taqman on day 3
Description: as §1, §2, §3

HCV replicon 1b Y93H = assay: Cell-based HCV replicon assay, genotype 1b Y93H; conditions: Hepatitis C virus, 72 h, read-out: EC50 1b Y93H
Description: as §1, §2, §3

Row | SMILES | EC50 (HCV replicon 2a JFH) | EC50 (HCV replicon 1b c16) | EC50 (HCV replicon 1a 1A7) | EC50 (HCV replicon 1b Y93H)
1 | COC(=O)N[C@H](C(=O)N1CCC[C@@H]1c1ncc(-c2ccc(C#Cc3ccc4nc([C@@H]5CCCN5C(=O)[C@@H](NC(=O)OC)C(C)C)[nH]c4c3)cc2)[nH]1)C(C)C [Compound 56] | 0.3 nM | 0.016 nM | 0.3 nM | 5 nM
2 | CC(C)(C)OC(=O)N1CCC[C@H]1c1ncc(-c2ccc(C#Cc3ccc4nc([C@@H]5CCCN5C(=O)OC(C)(C)C)[nH]c4c3)cc2)[nH]1 [Compound 58] | – | 251 nM | – | –
3 | COC(=O)N[C@@H](C(=O)N1CCC[C@@H]1c1ncc(-c2ccc(C#Cc3ccc4nc([C@@H]5CCCN5C(=O)[C@H](NC(=O)OC)c5ccccc5)[nH]c4c3)cc2)[nH]1)c1ccccc1 [Compound 57] | 0.019 nM | 0.001 nM | 0.41 nM | 0.5 nM
